Test [1] has as its target T1, Avi-KRAS G12C (2-169) GTP/RAF1 RBD-3xFLAG (51-131) (Homo sapiens, UniProt P01116, G12C).
T1 construct: Avi-KRAS G12C (2-169)
Nature of the test: Raf1-KRAS G12C-GTP disruption HTRF assay (Biological Example 3). In kind it is binding. The settings on record: KRAS G12C, GTP-loaded. The gist of the method:
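Compounds were titrated 10-point, 3-fold from 30 μM against preformed KRAS-GTP:RAF1 RBD (51-131) complexes at 50 nM, using KRAS 2-169 as WT, G12C, G12D or G12V. After 1 h at room temperature in Tris pH 7.5 buffer with MgCl2 and 10% DMSO, time-resolved fluorescence was read. Results are percent activity versus DMSO.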

Test [2] deals with HPAC cells (KRAS G12D). Nature of the test: Cell-based pERK HTRF assay in HPAC cells (Biological Example 5). The procedure: (§1) Biological Example 5: Cell-based PERK HTRF assay in AsPC-1, SW1900, HPAC, Capan-2, RKN, H358, HCT116, KP-2, H1573, A549, MKN1, and HT1080 cells
(§2) The inhibition of ERK phosphorylation, as measured using the HTRF Advanced Phospho-ERK 1/2 (Thr202/Tyr204) Detection Assay kit (Perkin Elmer), was used to determine the effectiveness of test compounds in disrupting KRAS-driven protein/effector signaling in cells.
(§3) On day 1, cells were seeded into 96-well plates at 2.5×10^4 cells/well in 100 μL of complete growth media supplemented with 10% fetal bovine serum (FBS) and incubated at 37° C., in the presence of 5% CO2.
(§4) On day 2, cells were treated with compounds diluted in DMSO at 0.25% final DMSO concentration. Compounds were dosed in a 9-point concentration curve with three-fold dilution between concentrations. Cells were incubated in the presence of compound for two hours at 37° C. Following this treatment period, cells were harvested by aspirating the media, adding 40 μL of kit-supplied 1x lysis buffer per well, and shaking for 30 minutes at 250 rpm at room temperature.
(§5) Following cell lysis, samples were homogenized by pipetting up and down twenty times and 16 μL of cell lysate per well was transferred from the 96-well cell culture plate to two wells of a 384-well detection plate. A complete detection buffer was prepared by diluting D2 and Eu Cryptate antibodies 1:20 in kit-provided detection solution, 4 μL of complete detection buffer was then added to each well with lysate. Plates were incubated with gentle rocking for 24 hours at 4° C.
(§6) Following this incubation period, plates were centrifuged at 500×g for one minute and analyzed on a CLARIOstar plate reader. Data was imported into Microsoft Excel and the signal from the 665 nm channel was divided by the signal from the 620 nm channel. % pERK was calculated as: […]
(§7) Data was imported to the Prism software package (Graphpad) and EC50 values were calculated using the log (inhibitor) vs, response—variable slopc (Four parameters) model.

Another test deals with H358 cells (KRAS G12C). Nature of the test: Cell-based pERK HTRF assay in H358 cells (Biological Example 5). How it is done: as §1, §2, §3, §4, §5, §6, §7
The test system of test [3] is MKN1 cells (KRAS amplification). Nature of the test: Cell-based pERK HTRF assay in MKN1 cells (Biological Example 5). How it is done:
as §1, §2, §3, §4, §5, §6, §7

Another test deals with AsPC-1 cells (KRAS G12D). Nature of the test: 3D Cell viability assay in AsPC-1 cells (Biological Example 6). The format is cell-based. The settings on record: AsPC-1 (KRAS G12D) spheroids, 72 hours. How it is done: Biological Example 6: 3D Cell viability assay in AsPC-1, SW1900, HPAC, Capan-2, RKN, H358, HCT116, KP-2, H1573, A549, MKN1, and HT1080 cells
The inhibition of cellular viability as a result of test compound treatment in a spheroid assay was measured using the CellTiter-Glow 3D Cell Viability Assay (Promega).
On Day 1, 1000 cells per well were seeded in 150 μL of complete growth media supplemented with 10% fetal bovine serum (FBS) and incubated at 37° C., in the presence of 5% CO2 in 96-well ultra-low attachment microplates (Corning) for 48 hours undisturbed to allow spheroids to form.
Following spheroid formation, cells were treated with compounds diluted in DMSO at 0.25% final DMSO concentration. Compounds were dosed in a 9-point concentration curve with three-fold dilution between concentrations. Cells were incubated in the presence of compound for 72 hours at 37° C., in the presence of 5% CO2.
Following this incubation period, the kit-provided CTG reagent was allowed to equilibrate for 30 minutes at room temperature, 150 μL of equilibrated CTG reagent was added to each well, and the plate was sealed before shaking at 250 rpm for 10 minutes at room temperature to lyse the cells, 150 μL of lysate per well was transferred to a 96-well plate and luminescence was read on a CLARIOstar plate reader.
Data was imported into the Prism software package (Graphpad) and EC50 values were calculated using the log (inhibitor) vs, response—variable slope (Four parameters) model.

Test [4] concerns HPAC cells (KRAS G12D). Nature of the test: 3D Cell viability assay in HPAC cells (Biological Example 6). In kind it is cell-based. The settings on record: HPAC (KRAS G12D) spheroids. The gist of the method:
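Tumour spheroids, grown 48 h from 1000 seeded cells in ultra-low attachment wells, receive compound at nine three-fold-spaced concentrations (final DMSO 0.25%) for 72 h at 37 °C, 5% CO2. Viability is measured by luminescence after CTG 3D lysis.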

T1 sequence (P01116 2-169 isoform P01116-2 G12C): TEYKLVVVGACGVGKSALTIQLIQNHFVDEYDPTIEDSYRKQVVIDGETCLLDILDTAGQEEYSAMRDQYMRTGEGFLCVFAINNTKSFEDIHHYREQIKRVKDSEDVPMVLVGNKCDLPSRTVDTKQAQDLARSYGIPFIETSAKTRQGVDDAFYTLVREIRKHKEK

As for `CCN(c1nc(OC[C@@]23CCCN2C[C@H](F)C3)nc2c(F)c(-c3ccc(F)c4sc(N)c(C#N)c34)c(C(F)(F)F)cc12)[C@H]1CCN(C(=O)N2CC(F)C2)C1` (atropisomer, axis not shown) [Compound 606], the 50% inhibitory concentration (IC50) in test [1] is no more than 100 nM; in the test on HPAC cells (KRAS G12D) [2] (Homo sapiens, HPAC), no more than 100 nM; in the test on H358 cells (KRAS G12C) (Homo sapiens, NCI-H358, H358 (KRAS G12C) cells), no more than 100 nM; in test [3] (Homo sapiens, MKN-1, MKN cells (MKN1, KRAS amplification)), no more than 100 nM; with AsPC-1 cells (KRAS G12D) (Homo sapiens, ASPC1) it was no more than 100 nM; in the test with HPAC cells (KRAS G12D) [4] (Homo sapiens, HPAC, 72 h) it was 100 to 1000 nM.
With `CCN(c1nc(OCC23CCCN2CC(F)C3)nc2c(F)c(-c3ccc(F)c4sc(N)c(C#N)c34)c(C(F)(F)F)cc12)C1CC(C)N(C(=O)C2CC2(F)F)C1` (stereo not drawn) [Compound 732], the IC50 in test [1] is 100 to 1000 nM; in the test with HPAC cells (KRAS G12D) [2], no more than 100 nM; in the test with H358 cells (KRAS G12C) (H358 (KRAS G12C) cells), no more than 100 nM; in test [3] (MKN cells (MKN1, KRAS amplification)), no more than 100 nM; in the test on AsPC-1 cells (KRAS G12D), no more than 100 nM; in the test on HPAC cells (KRAS G12D) [4] (72 hours), no more than 100 nM.

For the origin of these results see patent publication US20260042764A1, “COMPOSITIONS AND METHODS FOR INHIBITION OF KRAS” (TheRas, Inc., priority 2022, published 2026).
